Measured values as given in patent publication US20200031825A1, “HETEROAROMATIC-FUSED IMIDAZOLYL AMIDES, COMPOSITIONS AND USES THEREOF AS STING AGONISTS” (Trillium Therapeutics Inc., priority 2018, published 2020).
Counter-ions that a name gives are not always drawn. Like-named read-outs stand apart in the source and are kept apart here.

Tests used:
Assay type in all cases: cell-based
[1] = molecular target: hSTING-H232 (Homo sapiens, UniProt Q86WV6); assay: Cellular Functional Assay I: ISRE-SEAP reporter in HEK-293T-Dual Null cells transfected with hSTING-H232; settings: HEK-293T-Dual Null, hSTING-H232
Chain of hSTING-H232 (Q86WV6 whole entry): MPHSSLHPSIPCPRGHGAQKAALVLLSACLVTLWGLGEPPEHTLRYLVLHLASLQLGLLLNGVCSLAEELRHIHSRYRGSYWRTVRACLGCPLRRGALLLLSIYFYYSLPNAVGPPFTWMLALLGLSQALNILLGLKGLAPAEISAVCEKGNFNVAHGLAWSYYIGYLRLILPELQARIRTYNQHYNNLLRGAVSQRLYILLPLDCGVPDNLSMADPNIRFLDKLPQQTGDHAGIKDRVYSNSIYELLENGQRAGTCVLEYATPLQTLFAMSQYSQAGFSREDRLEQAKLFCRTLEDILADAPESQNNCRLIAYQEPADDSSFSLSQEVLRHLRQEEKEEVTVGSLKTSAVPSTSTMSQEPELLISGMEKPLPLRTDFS

[2] = molecular target: hSTING-HAQ (Homo sapiens, UniProt Q86WV6, G230A/H232R/R293Q/R71H); assay: Cellular Functional Assay I: ISRE-SEAP reporter in HEK-293T-Dual Null cells transfected with hSTING-HAQ; settings: HEK-293T-Dual Null, hSTING-HAQ
Chain of hSTING-HAQ (Q86WV6 whole entry R71H/G230A/H232R/R293Q): as the sequence (Q86WV6 whole entry) above, with R71H, G230A, H232R, R293Q counted along it

[3] = molecular target: T1, mSTING-wt (Mus musculus, UniProt Q3TBT3); assay: Cellular Functional Assay I: ISRE-SEAP reporter in HEK-293T-Dual Null cells transfected with mouse STING
T1 sequence (Q3TBT3 1-378): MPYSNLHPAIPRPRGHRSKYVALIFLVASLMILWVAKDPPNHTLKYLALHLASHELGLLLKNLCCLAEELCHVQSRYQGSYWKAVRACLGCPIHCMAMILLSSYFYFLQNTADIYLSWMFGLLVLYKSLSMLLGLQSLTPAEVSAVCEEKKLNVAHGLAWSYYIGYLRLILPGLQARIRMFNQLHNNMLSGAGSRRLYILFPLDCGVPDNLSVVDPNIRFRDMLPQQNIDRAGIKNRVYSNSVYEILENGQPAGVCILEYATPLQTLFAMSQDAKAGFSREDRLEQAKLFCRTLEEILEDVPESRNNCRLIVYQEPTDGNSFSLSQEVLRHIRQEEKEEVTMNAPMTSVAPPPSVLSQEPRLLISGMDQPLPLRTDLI

[4] = molecular target: T2, hSTING-Q (Homo sapiens, UniProt Q86WV6, R293Q); assay: Cellular Functional Assay I: ISRE-SEAP reporter, hSTING-Q allele
T2 construct: expressed in transfected cells
T2 sequence (Q86WV6 whole entry R293Q): as the sequence (Q86WV6 whole entry) above, with R293Q counted along it

[5] = molecular target: hSTING-wt (Homo sapiens, UniProt Q86WV6); assay: Cellular Functional Assay I: ISRE-SEAP reporter in HEK-293T-Dual Null cells transfected with hSTING-wt; settings: HEK-293T-Dual Null, hSTING-wt
Chain of hSTING-wt (Q86WV6 whole entry H232R): as the sequence (Q86WV6 whole entry) above, with H232R counted along it

[6] = molecular target: T3, hSTING-AQ (Homo sapiens, UniProt Q86WV6, G230A/R293Q); assay: Cellular Functional Assay I: ISRE-SEAP reporter, hSTING-AQ allele
T3 construct: expressed in transfected cells
T3 sequence (Q86WV6 whole entry G230A/H232R/R293Q): as the sequence (Q86WV6 whole entry) above, with G230A, H232R, R293Q counted along it

[7] = SEAP reporter, HEK-293T-Dual Null, mSTING-wt, read-out: EC50 mSTING-wt

How did the EC50 [1] turn out when CCn1nc(C)cc1C(=O)Nc1nc2cc(C(N)=O)cc(C)c2n1C/C=C/Cn1c(NC(=O)c2cnc(C)s2)nc2cc(C(N)=O)cnc21 [Compound C, N-[6-carbamoyl-3-[(E)-4-[5-carbamoyl-2-[(2-ethyl-5-methyl-pyrazole-3-carbonyl)amino]-7-methyl-benzimidazol-1-yl]but-2-enyl]imidazo[4,5-b]pyridin-2-yl]-2-methyl-thiazole-5-carboxamide Hydrochloride] was run?
Its EC50 is 1 to 500 nM.

What about the EC50 [2] of the same molecule?
The EC50 was > 500 nM.

What about the EC50 [3, 7] of the same molecule?
Its EC50 is > 500 nM.

And the EC50 [4]?
Its EC50 is 1 to 500 nM.

And the EC50 [5]?
Its EC50 is 1 to 500 nM.

What about the EC50 [6] of the same molecule?
The EC50 was 1 to 500 nM.

How did the EC50 [1] turn out when CCn1nc(C)cc1C(=O)Nc1nc2cc(C(N)=O)cnc2n1C/C=C/CNC(=O)OC(C)(C)C [Compound D, tert-butyl N-[(E)-4-[6-carbamoyl-2-[(2-ethyl-5-methyl-pyrazole-3-carbonyl)amino]imidazo[4,5-b]pyridin-3-yl]but-2-enyl]carbamate] was run?
Its EC50 is > 500 nM.

What about the EC50 [2] of the same molecule?
The EC50 was > 500 nM.

And the EC50 [3, 7]?
Its EC50 is > 500 nM.

What about the EC50 [4] of the same molecule?
Its EC50 is > 500 nM.

What about the EC50 [5] of the same molecule?
Its EC50 is > 500 nM.

And the EC50 [6]?
Its EC50 is > 500 nM.

Which results are given for CCn1nc(C)cc1C(=O)Nc1nc2cc(C(N)=O)cnc2n1CCCCNC(=O)OC(C)(C)C [Compound E, tert-butyl N-[4-[6-carbamoyl-2-[(2-ethyl-5-methyl-pyrazole-3-carbonyl)amino]imidazo[4,5-b]pyridin-3-yl]butyl]carbamate]?
EC50 [1]: > 500 nM; EC50 [2]: > 500 nM; EC50 [3, 7]: > 500 nM; EC50 [4]: > 500 nM; EC50 [5]: > 500 nM; EC50 [6]: > 500 nM

For CCn1nc(C)cc1C(=O)Nc1nc2cc(C(N)=O)cnc2n1C/C=C/CNC(=O)OCc1ccccc1 [Compound F, benzyl N-[(E)-4-[6-carbamoyl-2-[(2-ethyl-5-methyl-pyrazole-3-carbonyl)amino]imidazo[4,5-b]pyridin-3-yl]but-2-enyl]carbamate], which EC50 [1] is on record?
Its EC50 is > 500 nM.

What about the EC50 [2] of the same molecule?
Its EC50 is > 500 nM.

What about the EC50 [3, 7] of the same molecule?
Its EC50 is > 500 nM.

What about the EC50 [4] of the same molecule?
The EC50 was > 500 nM.

What about the EC50 [5] of the same molecule?
The EC50 was > 500 nM.

What about the EC50 [6] of the same molecule?
The EC50 was > 500 nM.

What does the source list for CCn1nc(C)cc1C(=O)Nc1nc2cc(C(N)=O)cnc2n1CCCCNC(=O)OCc1ccccc1 [Compound G, benzyl N-[4-[6-carbamoyl-2-[(2-ethyl-5-methyl-pyrazole-3-carbonyl)amino]imidazo[4,5-b]pyridin-3-yl]butyl]carbamate]?
EC50 [1]: > 500 nM; EC50 [2]: > 500 nM; EC50 [3, 7]: > 500 nM; EC50 [4]: > 500 nM; EC50 [5]: > 500 nM; EC50 [6]: > 500 nM

For CCn1nc(C)cc1C(=O)Nc1nc2cc(C(N)=O)sc2n1C/C=C/CNC(=O)OC(C)(C)C [Compound H, tert-butyl N-[(E)-4-[5-carbamoyl-2-[(2-ethyl-5-methyl-pyrazole-3-carbonyl)amino]thieno[2,3-d]imidazol-3-yl]but-2-enyl]carbamate], which EC50 [1] is on record?
Its EC50 is > 500 nM.

And the EC50 [2]?
The EC50 was > 500 nM.

And the EC50 [3, 7]?
Its EC50 is > 500 nM.

And the EC50 [4]?
The EC50 was > 500 nM.

And the EC50 [5]?
Its EC50 is > 500 nM.

What about the EC50 [6] of the same molecule?
The EC50 was > 500 nM.

CCn1nc(C)cc1C(=O)Nc1nc2cc(C(N)=O)cnc2n1C/C=C/Cn1c(NC(=O)c2cc(C)nn2CC)nc2cc(C(N)=O)cnc21 [Compound L, 3-[(E)-4-[6-carbamoyl-2-[(2-ethyl-5-methyl-pyrazole-3-carbonyl)amino]imidazo[4,5-b]pyridin-3-yl]but-2-enyl]-2-[(2-ethyl-5-methyl-pyrazole-3-carbonyl)amino]imidazo[4,5-b]pyridine-6-carboxamide] was tested. Which EC50 [1] did it give?
Its EC50 is 1 to 500 nM.

What about the EC50 [2] of the same molecule?
The EC50 was > 500 nM.

What about the EC50 [3, 7] of the same molecule?
The EC50 was 1 to 500 nM.

What about the EC50 [4] of the same molecule?
The EC50 was 1 to 500 nM.

What about the EC50 [5] of the same molecule?
The EC50 was 1 to 500 nM.

What about the EC50 [6] of the same molecule?
Its EC50 is > 500 nM.

How did the EC50 [1] turn out when CCn1nc(C)cc1C(=O)Nc1nc2cc(C(N)=O)ccc2n1C/C=C/Cn1c(NC(=O)c2cc(C)nn2CC)nc2cc(C(N)=O)sc21 [Compound M, 3-[(E)-4-[5-carbamoyl-2-[(2-ethyl-5-methyl-pyrazole-3-carbonyl)amino]benzimidazol-1-yl]but-2-enyl]-2-[(2-ethyl-5-methyl-pyrazole-3-carbonyl)amino]thieno[2,3-d]imidazole-5-carboxamide Tetrahydrochloride] was run?
The EC50 was 1 to 500 nM.

What about the EC50 [2] of the same molecule?
The EC50 was > 500 nM.

What about the EC50 [3, 7] of the same molecule?
Its EC50 is 1 to 500 nM.

And the EC50 [4]?
The EC50 was 1 to 500 nM.

And the EC50 [5]?
Its EC50 is 1 to 500 nM.

What about the EC50 [6] of the same molecule?
Its EC50 is > 500 nM.

What does the source list for CCn1nc(C)cc1C(=O)Nc1nc2cc(C(N)=O)sc2n1C/C=C/Cn1c(NC(=O)c2cc(C)nn2CC)nc2cc(C(N)=O)cc(OCCOC(F)F)c21 [Compound N, 3-[(E)-4-[5-carbamoyl-7-[2-(difluoromethoxy)ethoxy]-2-[(2-ethyl-5-methyl-pyrazole-3-carbonyl)amino]benzimidazol-1-yl]but-2-enyl]-2-[(2-ethyl-5-methyl-pyrazole-3-carbonyl)amino]thieno[2,3-d]imidazole-5-carboxamide Tetrahydrochloride]?
EC50 [1]: < 1 nM; EC50 [2]: > 500 nM; EC50 [3, 7]: 1 to 500 nM; EC50 [4]: 1 to 500 nM; EC50 [5]: < 1 nM; EC50 [6]: > 500 nM

What does the source list for CCn1nc(C)cc1C(=O)Nc1nc2cc(C(N)=O)sc2n1C/C=C/Cn1c(NC(=O)c2cc(C)nn2CC)nc2cc(C(N)=O)cc(OCCCN(C)C)c21 [Compound O, 3-[(E)-4-[5-carbamoyl-7-[3-(dimethylamino)propoxy]-2-[(2-ethyl-5-methyl-pyrazole-3-carbonyl)amino]benzimidazol-1-yl]but-2-enyl]-2-[(2-ethyl-5-methyl-pyrazole-3-carbonyl)amino]thieno[2,3-d]imidazole-5-carboxamide]?
EC50 [1]: 1 to 500 nM; EC50 [5]: 1 to 500 nM

Which EC50 [1] does the source give for CCn1nc(C)cc1C(=O)Nc1nc2cc(C(N)=O)cnc2n1C/C=C/Cn1c(NC(=O)c2cc(C)nn2CC)nc2cc(C(N)=O)cc(OCCCN(C)C)c21 [Compound P, 3-[(E)-4-[5-carbamoyl-7-[3-(dimethylamino)propoxy]-2-[(2-ethyl-5-methyl-pyrazole-3-carbonyl)amino]benzimidazol-1-yl]but-2-enyl]-2-[(2-ethyl-5-methyl-pyrazole-3-carbonyl)amino]imidazo[4,5-b]pyridine-6-carboxamide] here?
The EC50 was 1 to 500 nM.

And the EC50 [2]?
Its EC50 is 1 to 500 nM.

What about the EC50 [3, 7] of the same molecule?
The EC50 was 1 to 500 nM.

What about the EC50 [4] of the same molecule?
The EC50 was 1 to 500 nM.

What about the EC50 [5] of the same molecule?
The EC50 was 1 to 500 nM.

And the EC50 [6]?
The EC50 was 1 to 500 nM.

Which results are given for CCn1nc(C)cc1C(=O)Nc1nc2cc(C(N)=O)sc2n1C/C=C/Cn1c(NC(=O)c2cc(C)nn2CC)nc2cc(C(N)=O)cc(OCCCNC)c21 [Compound Q, 3-[(E)-4-[5-carbamoyl-2-[(2-ethyl-5-methyl-pyrazole-3-carbonyl)amino]-7-[3-(methylamino)propoxy]benzimidazol-1-yl]but-2-enyl]-2-[(2-ethyl-5-methyl-pyrazole-3-carbonyl)amino]thieno[2,3-d]imidazole-5-carboxamide]?
EC50 [1]: 1 to 500 nM; EC50 [5]: 1 to 500 nM

Which results are given for CCn1nc(C)cc1C(=O)Nc1nc2cc(C(N)=O)cnc2n1C/C=C/Cn1c(NC(=O)c2cc(C)nn2CC)nc2cc(C(N)=O)cc(OCCCO)c21 [Compound R]?
EC50 [1]: 1 to 500 nM; EC50 [2]: 1 to 500 nM; EC50 [3]: 1 to 500 nM; EC50 [4]: 1 to 500 nM; EC50 [5]: 1 to 500 nM; EC50 [6]: 1 to 500 nM

What does the source list for CCn1nc(C)cc1C(=O)Nc1nc2cc(C(N)=O)cnc2n1C/C=C/Cn1c(NC(=O)c2cc(C)nn2CC)nc2cc(C(N)=O)cc(OCCCNC)c21 [Compound S, 3-[(E)-4-[5-carbamoyl-2-[(2-ethyl-5-methyl-pyrazole-3-carbonyl)amino]-7-[3-(methylamino)propoxy]benzimidazol-1-yl]but-2-enyl]-2-[(2-ethyl-5-methyl-pyrazole-3-carbonyl)amino]imidazo[4,5-b]pyridine-6-carboxamide]?
EC50 [1]: 1 to 500 nM; EC50 [2]: 1 to 500 nM; EC50 [3, 7]: 1 to 500 nM; EC50 [4]: 1 to 500 nM; EC50 [5]: 1 to 500 nM; EC50 [6]: 1 to 500 nM

With CCn1nc(C)cc1C(=O)Nc1nc2cc(C(N)=O)cnc2n1C/C=C/Cn1c(NC(=O)c2cc(C)nn2CC)nc2cc(C(N)=O)cc(OCCCNCCOC(F)F)c21 [Compound U, 3-[(E)-4-[5-carbamoyl-7-[3-[2-(difluoromethoxy)ethylamino]propoxy]-2-[(2-ethyl-5-methyl-pyrazole-3-carbonyl)amino]benzimidazol-1-yl]but-2-enyl]-2-[(2-ethyl-5-methyl-pyrazole-3-carbonyl)amino]imidazo[4,5-b]pyridine-6-carboxamide] as the molecule, how does the EC50 [1] read?
The EC50 was 1 to 500 nM.

And the EC50 [2]?
Its EC50 is 1 to 500 nM.

And the EC50 [3, 7]?
Its EC50 is 1 to 500 nM.

And the EC50 [4]?
The EC50 was 1 to 500 nM.

And the EC50 [5]?
Its EC50 is 1 to 500 nM.

And the EC50 [6]?
The EC50 was 1 to 500 nM.

With CCn1nc(C)cc1C(=O)Nc1nc2cc(C(N)=O)cnc2n1C/C=C/Cn1c(NC(=O)c2cc(C)nn2CC)nc2cc(C(N)=O)cc(OCCCN(C)CCOC)c21 [Compound V, 3-[(E)-4-[5-carbamoyl-2-[(2-ethyl-5-methyl-pyrazole-3-carbonyl)amino]-7-[3-[2-methoxyethyl(methyl)amino]propoxy]benzimidazol-1-yl]but-2-enyl]-2-[(2-ethyl-5-methyl-pyrazole-3-carbonyl)amino]imidazo[4,5-b]pyridine-6-carboxamide] as the molecule, how does the EC50 [1] read?
The EC50 was 1 to 500 nM.

And the EC50 [2]?
Its EC50 is 1 to 500 nM.

What about the EC50 [3, 7] of the same molecule?
Its EC50 is 1 to 500 nM.

What about the EC50 [4] of the same molecule?
The EC50 was 1 to 500 nM.

And the EC50 [5]?
The EC50 was 1 to 500 nM.

And the EC50 [6]?
The EC50 was 1 to 500 nM.
